# Data reported in US20220356186A1, “PERK INHIBITING PYRROLOPYRIMIDINE COMPOUNDS” (HiberCell, Inc., priority 2019, published 2022).
# Like-named read-outs stand apart in the source and are kept apart here.
# What was measured:
# [1] = tested on: GFP-eIF2α in HEK293 cells; experiment: PERK cellular assay, TR-FRET in HEK293-EGFP-eIF2a cells after tunicamycin-induced ER stress; assay type: cell-based; conditions: Homo sapiens, HEK293-EGFP-eIF2a cells, tunicamycin 2 hours, read-out: Cellular eIF2α IC50
# Outline: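 HEK293 cells stably expressing GFP-eIF2α, plated 5000 cells/well overnight, pretreated with inhibitors 30 min at 37 °C, then ER stress induced with tunicamycin […] for 2 h.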
# [2] = target: T1, EIF2AK3 (PERK) catalytic domain (amino acids 536-1116) (Homo sapiens, UniProt Q9NZJ5); experiment: PERK in vitro activity assay (isolated), TR-FRET kinase assay; assay type: biochemical; conditions: isolated PERK enzyme, 1.5 μM ATP; read-out: Biochemical IC50
# T1 construct: EIF2AK3 (PERK) catalytic domain (amino acids 536-1116)
# T1 sequence (Q9NZJ5 536-1116): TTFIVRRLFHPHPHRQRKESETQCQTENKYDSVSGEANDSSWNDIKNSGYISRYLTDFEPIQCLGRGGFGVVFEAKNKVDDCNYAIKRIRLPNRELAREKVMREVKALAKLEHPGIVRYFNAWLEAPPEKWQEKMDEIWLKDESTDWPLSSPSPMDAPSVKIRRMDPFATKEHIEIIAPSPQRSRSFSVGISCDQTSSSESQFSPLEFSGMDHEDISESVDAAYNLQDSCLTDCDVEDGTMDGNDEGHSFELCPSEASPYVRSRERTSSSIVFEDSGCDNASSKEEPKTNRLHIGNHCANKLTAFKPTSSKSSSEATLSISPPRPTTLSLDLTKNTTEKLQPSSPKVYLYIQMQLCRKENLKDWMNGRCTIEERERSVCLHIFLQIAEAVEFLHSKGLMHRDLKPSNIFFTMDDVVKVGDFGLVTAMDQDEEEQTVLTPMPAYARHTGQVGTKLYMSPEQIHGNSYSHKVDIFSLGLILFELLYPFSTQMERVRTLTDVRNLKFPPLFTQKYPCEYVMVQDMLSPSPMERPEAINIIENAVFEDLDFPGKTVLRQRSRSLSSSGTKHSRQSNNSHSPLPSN
# Outline: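 Human PERK catalytic domain (aa 536-1116) phosphorylating 100-200 nM GFP-eIF2a in 50 mM HEPES pH 7.5, 10 mM MgCl2, 1 mM EGTA, 0.01% Brij-35; enzyme-started, 45 min at room temperature. Stopped with 10 mM EDTA, 2 nM Tb-anti-phospho-eIF2a added for 90 min; IC50 from TR-FRET ratios by 4-parameter logistic fit.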
Compound,IC50 [2] [nM],"IC50 ([1]; HEK293, 2 h) [nM]",IC50 [1] [nM]
"CCc1cccc(CC(=O)Nc2ccc(-c3cn(C)c4ncnc(N)c34)c(C)c2)c1 [Example 146, N-(4-(4-amino-7-methyl-7H-pyrrolo[2,3-d]pyrimidin-5-yl)-3-methylphenyl)-2-(3-ethylphenyl)acetamide]",1 to 25,1 to 25,
"CCc1ccc(CC(=O)Nc2ccc(-c3cn(C)c4ncnc(N)c34)c(C)c2)cc1 [Example 147, N-(4-(4-amino-7-methyl-7H-pyrrolo[2,3-d]pyrimidin-5-yl)-3-methylphenyl)-2-(4-ethylphenyl)acetamide]",1 to 25,51 to 100,
"Cc1cc(NC(=O)Cc2cccc(C(C)C)c2)ccc1-c1cn(C)c2ncnc(N)c12 [Example 148, N-(4-(4-amino-7-methyl-7H-pyrrolo[2,3-d]pyrimidin-5-yl)-3-methylphenyl)-2-(3-isopropylphenyl)acetamide]",1 to 25,101 to 250,
"Cc1cc(NC(=O)Cc2ccccc2Cl)ccc1-c1cn(C)c2ncnc(N)c12 [Example 149, N-(4-(4-amino-7-methyl-7H-pyrrolo[2,3-d]pyrimidin-5-yl)-3-methylphenyl)-2-(2-chlorophenyl)acetamide]",1 to 25,26 to 50,
"Cc1cc(NC(=O)Cc2cccc(Cl)c2)ccc1-c1cn(C)c2ncnc(N)c12 [Example 150, N-(4-(4-amino-7-methyl-7H-pyrrolo[2,3-d]pyrimidin-5-yl)-3-methylphenyl)-2-(3-chlorophenyl)acetamide]",1 to 25,26 to 50,
"Cc1cc(NC(=O)Cc2ccc(Cl)cc2)ccc1-c1cn(C)c2ncnc(N)c12 [Example 151, N-(4-(4-amino-7-methyl-7H-pyrrolo[2,3-d]pyrimidin-5-yl)-3-methylphenyl)-2-(4-chlorophenyl)acetamide]",1 to 25,101 to 250,
"Cc1cc(NC(=O)Cc2cccc3ccccc23)ccc1-c1cn(C)c2ncnc(N)c12 [Example 153, N-(4-(4-amino-7-methyl-7H-pyrrolo[2,3-d]pyrimidin-5-yl)-3-methylphenyl)-2-(naphthalen-1-yl)acetamide]",1 to 25,26 to 50,
"Cc1cc(NC(=O)Cc2cncc3ccccc23)ccc1-c1cn(C)c2ncnc(N)c12 [Example 155, N-(4-(4-amino-7-methyl-7H-pyrrolo[2,3-d]pyrimidin-5-yl)-3-methylphenyl)-2-(isoquinolin-4-yl)acetamide]",26 to 50,101 to 250,
"Cc1cc(NC(=O)Cc2ccccc2C(F)(F)F)ccc1-c1cn(C)c2ncnc(N)c12 [Example 157, N-(4-(4-amino-7-methyl-7H-pyrrolo[2,3-d]pyrimidin-5-yl)-3-methylphenyl)-2-(2-(trifluoromethyl)phenyl)acetamide]",1 to 25,51 to 100,
"Cc1cc(NC(=O)Cc2cccc(C)c2C)ccc1-c1cn(C)c2ncnc(N)c12 [Example 162, N-(4-(4-amino-7-methyl-7H-pyrrolo[2,3-d]pyrimidin-5-yl)-3-methylphenyl)-2-(2,3-dimethylphenyl)acetamide]",1 to 25,51 to 100,
"Cc1cc(NC(=O)CC2CC2)ccc1-c1cn(C)c2ncnc(N)c12 [Example 163, N-(4-(4-amino-7-methyl-7H-pyrrolo[2,3-d]pyrimidin-5-yl)-3-methylphenyl)-2-cyclopropyl-acetamide]",> 5000,> 5000,
"Cc1cc(NC(=O)CC2CCC2)ccc1-c1cn(C)c2ncnc(N)c12 [Example 164, N-(4-(4-amino-7-methyl-7H-pyrrolo[2,3-d]pyrimidin-5-yl)-3-methylphenyl)-2-cyclobutyl-acetamide]",51 to 100,2000 to 3000,
"Cc1cc(NC(=O)c2ccccc2)ccc1-c1cn(C)c2ncnc(N)c12 [Example 167, N-(4-(4-amino-7-methyl-7H-pyrrolo[2,3-d]pyrimidin-5-yl)-3-methylphenyl)benzamide]",101 to 250,3000 to 4000,
"Cc1cc(NC(=O)Oc2ccccc2)ccc1-c1cn(C)c2ncnc(N)c12 [Example 169, phenyl (4-(4-amino-7-methyl-7H-pyrrolo[2,3-d]pyrimidin-5-yl)-3-methylphenyl)carbamate]",3000 to 4000,,> 5000
"Cc1cc(NC(=O)Nc2ccccc2)ccc1-c1cn(C)c2ncnc(N)c12 [Example 170, 1-(4-(4-amino-7-methyl-7H-pyrrolo[2,3-d]pyrimidin-5-yl)-3-methylphenyl)-3-phenylurea]",1 to 25,101 to 250,
"Cc1cc(NC(=O)N(C)c2ccccc2)ccc1-c1cn(C)c2ncnc(N)c12 [Example 171, 3-(4-(4-amino-7-methyl-7H-pyrrolo[2,3-d]pyrimidin-5-yl)-3-methylphenyl)-1-methyl-1-phenylurea]",101 to 250,1000 to 2000,

# Now from value to molecule, other results behind:
IC50 [2] [nM],Compound,"IC50 ([1]; HEK293, 2 h) [nM]",IC50 [1] [nM]
1 to 25,"Cc1ccc(CC(=O)Nc2ccc(-c3cn(C)c4ncnc(N)c34)c(C)c2)cc1 [Example 144, N-(4-(4-amino-7-methyl-7H-pyrrolo[2,3-d]pyrimidin-5-yl)-3-methylphenyl)-2-(p-tolyl)acetamide]",101 to 250,
1 to 25,"CCc1ccccc1CC(=O)Nc1ccc(-c2cn(C)c3ncnc(N)c23)c(C)c1 [Example 145, N-(4-(4-amino-7-methyl-7H-pyrrolo[2,3-d]pyrimidin-5-yl)-3-methylphenyl)-2-(2-ethylphenyl)acetamide]",26 to 50,
1 to 25,"Cc1cc(NC(=O)Cc2ccc3ccccc3c2)ccc1-c1cn(C)c2ncnc(N)c12 [Example 152, N-(4-(4-amino-7-methyl-7H-pyrrolo[2,3-d]pyrimidin-5-yl)-3-methylphenyl)-2-(naphthalen-2-yl)acetamide]",51 to 100,
51 to 100,"Cc1cc(NC(=O)Cc2cccc3ncccc23)ccc1-c1cn(C)c2ncnc(N)c12 [Example 154, N-(4-(4-amino-7-methyl-7H-pyrrolo[2,3-d]pyrimidin-5-yl)-3-methylphenyl)-2-(quinolin-5-yl)acetamide]",501 to 1000,
51 to 100,"Cc1cc(NC(=O)Cc2cccc3cnccc23)ccc1-c1cn(C)c2ncnc(N)c12 [Example 156, N-(4-(4-amino-7-methyl-7H-pyrrolo[2,3-d]pyrimidin-5-yl)-3-methylphenyl)-2-(isoquinolin-5-yl)acetamide]",251 to 500,
51 to 100,"Cc1cc(NC(=O)Cc2ccc(C(F)(F)F)cc2)ccc1-c1cn(C)c2ncnc(N)c12 [Example 159, N-(4-(4-amino-7-methyl-7H-pyrrolo[2,3-d]pyrimidin-5-yl)-3-methylphenyl)-2-(4-(trifluoromethyl)phenyl)acetamide]",501 to 1000,
101 to 250,"Cc1cc(NC(=O)CC2CCCC2)ccc1-c1cn(C)c2ncnc(N)c12 [Example 165, N-(4-(4-amino-7-methyl-7H-pyrrolo[2,3-d]pyrimidin-5-yl)-3-methylphenyl)-2-cyclopentyl-acetamide]",501 to 1000,
1 to 25,"Cc1cc(NC(=O)CC2CCCCC2)ccc1-c1cn(C)c2ncnc(N)c12 [Example 166, N-(4-(4-amino-7-methyl-7H-pyrrolo[2,3-d]pyrimidin-5-yl)-3-methylphenyl)-2-cyclohexyl-acetamide]",101 to 250,
101 to 250,"Cc1cc(NC(=O)CCc2ccccc2)ccc1-c1cn(C)c2ncnc(N)c12 [Example 168, N-(4-(4-amino-7-methyl-7H-pyrrolo[2,3-d]pyrimidin-5-yl)-3-methylphenyl)-3-phenylpropanamide]",1000 to 2000,
